Experimental data: article PMC10249021 (Journal of the American Chemical Society, 2020)

Assay: Thermal stability of oxytocin and analogues at 50 °C by LCMS analysis
Type: physicochemical
Settings: thermal degradation in water at 50 °C; read-out LCMS analysis

half-life (thermal stability): 93.6 h
Structure (SMILES): CC[C@H](C)[C@@H]1NC(=O)[C@H](Cc2ccc(O)cc2)NC(=O)[C@@H](N)CSSC[C@@H](C(=O)N2CCC[C@H]2C(=O)N[C@@H](CC(C)C)C(=O)NCC(N)=O)NC(=O)[C@H](CC(N)=O)NC(=O)[C@H](CCC(N)=O)NC1=O [oxytocin]
